Test results: US20240122865A1, “Methods of Protecting RNA” (Pfizer Inc., priority 2021, published 2024)
Values joined by “and” are separate entries in the source; they are usually repeats but may differ in a detail not shown here. Equal values may be shown once.

Tests used:
Type in all cases: biochemical, Trichoderma atroviride
FgenL model RNA [1] = experiment: TapeStation Assay, FgenL model RNA; design: Conc. FgenL#1 / Conc. FgenL#2: unit not given here; conditions: for % Control N = 1 / % Control N = 2 / % Control Average: FgenL RNA, 20 mM amino acids, 50 mM CAPS pH 11, 50° C. 15 min; for % Control N = 1 / % Control N = 2: vs Time 0; for % Control Average: vs Time 0, Avg N=2; for Conc. FgenL#1 / Conc. FgenL#2: intact FgenL RNA after 15 min at 50° C.; for Conc. FgenL#1: 20 mM amino acids in 50 mM CAPS pH 11, run #1; for Conc. FgenL#2: 20 mM amino acids in 50 mM CAPS pH 11, run #2
Protocol: (§1) These assays were performed with amino acids and compared to a no-degradation baseline control to gauge degree of protection imparted by the amino acid. Multiple functional assay approaches were used where differing endpoints were measured including a droplet digital PCR (ddPCR) assay where intact RNA sequence was quantitated, a size exclusion base hydrolysis degradation assay that used a size exclusion column to determine the degree of degradation occurring to an mRNA construct, and finally, a TapeStation assay that utilizes capillary electrophoresis and optical detection to measure intact RNA. […] Affinity selection by mass spectrometry (ASMS), native electrospray ionization mass spectrometry (nESI-MS) and nuclear magnetic resonance (NMR) may be used as several complementary approaches to ascertain compound binding to RNA. The latter techniques utilize MS to measure mass of bound compound alone (ASMS), or mass of RNA and bound compound (nESI-MS). The nESI-MS and NMR studies may be conducted to provide direct analytical quantification of resulting complex via measurement of mass (nESI-MS) or chemical shifts (NMR). The ASMS experiment is conducted to determine saturation binding of the compound to RNA where resulting apparent binding constants (KD,App) may be generated. Further descriptions of the functional and binding assays are provided in the section below.
(§2) In principle, samples are loaded to the instrument where electrophoresis separates component RNA's on the basis of mass, and subsequently analyzes these optically as they travel through the capillary.
(§3) RNA samples were diluted to the appropriate concentration to fall within the linear range of detection for the RNA ScreenTape Assay. Model Chi18 or FgenL RNAs were diluted to 50 ng/μL in 50 mM CAPS buffer pH 11. Amino acid stocks were made up in 50 mM CAPS pH 11 and re-adjusted to >pH 11 after solubilization. […] The samples were aliquoted to PCR tubes for each time point (Time 0 or 15 minutes). Degradation reaction: Samples were incubated at 50° C. for 0 to 15 minutes in a thermocycler, removed at the appropriate time point and placed on ice. Time 0 samples remained on ice.

Chi18 model RNA = experiment: TapeStation Assay, Chi18 model RNA; design: Conc. chi18#1 / Conc. chi18#2: unit not given here; conditions: for % Control N = 1 / % Control N = 2 / % Control Avg.: Chi18 RNA, 20 mM amino acids, 50 mM CAPS pH 11, 50° C. 15 min; for % Control N = 1 / % Control N = 2: vs Time 0; for % Control Avg.: vs Time 0, Avg N=2; for Conc. chi18#1 / Conc. chi18#2: intact Chi18 RNA after 15 min at 50° C.; for Conc. chi18#1: 20 mM amino acids in 50 mM CAPS pH 11, run #1; for Conc. chi18#2: 20 mM amino acids in 50 mM CAPS pH 11, run #2
Protocol: as §1, §2, §3

Chi18 mRNA construct = experiment: Size Exclusion Base Hydrolysis Degradation Assay, Chi18; conditions: for T0 R1 peak area at 250 nm: Chi18 0.1 mg/mL, 25 mM amino acid, 50 mM CAPS, T=0, replicate 1; for T2 R1 peak area at 250 nm / T2 Avg, peak area as percentage of T=0 / T10 Avg, peak area as percentage of T=0 / T10 R1 peak area at 250 nm / T24 Avg, peak area as percentage of T=0 / T24 R1 peak area at 250 nm / T0 Avg, peak area as percentage of T=0: Chi18, 25 mM amino acid; for T2 R1 peak area at 250 nm / T2 Avg, peak area as percentage of T=0 / T10 Avg, peak area as percentage of T=0 / T10 R1 peak area at 250 nm / T24 Avg, peak area as percentage of T=0 / T24 R1 peak area at 250 nm: 50 mM CAPS pH 11, room temperature; for T2 R1 peak area at 250 nm / T2 Avg, peak area as percentage of T=0: 2 hrs; for T2 R1 peak area at 250 nm / T10 R1 peak area at 250 nm / T24 R1 peak area at 250 nm: replicate 1; for T10 Avg, peak area as percentage of T=0 / T10 R1 peak area at 250 nm: 10 hrs; for T24 Avg, peak area as percentage of T=0 / T24 R1 peak area at 250 nm: 24 hrs; for T0 Avg, peak area as percentage of T=0: T=0 (reference)
Protocol: Basic assay procedure: RNA samples were diluted to 1.0 mg/mL in DNAase/RNAase free water. Amino acids were dissolved in water to a stock solution of 100 mM and a solution of 500 mM CAPS pH 11 was used. The two mRNA constructs tested were FgenL and Chi18. Each individual sample volume was 50 μL. To determine the amount of 1 M NaOH needed to adjust the final pH to 11.0 after the addition of all sample components, the sample volume was increased 100 fold (5 mL), the volume of 1 M NaOH recorded and this value was translated back down to the 50 μL sample volume.
The mRNA and amino acid were allowed to incubate for one hour prior to the addition of CAPS pH 11. All steps of the assay were conducted at room temperature.
Degradation reaction: After the CAPS addition, the samples were injected onto the Waters H-Class UPLC system to record the first timepoint, T=O. This resulting chromatogram was processed by integrating the area of absorbance at 250 nm for the mRNA construct. Immediately following this timepoint, the pH was adjusted to 11. Subsequent time points (2 hrs, 10 hrs, and 24 hrs) recorded the Absorbance Units (peak area) at 250 nm as a percentage of the peak area determined at T=O. Integration of the chromatogram for subsequent timepoints was conducted by analyzing the area of absorbance at 250 nm contained within the same time window in which the peak eluted in T=0 for the 100% intact mRNA.

FgenL model RNA [2] = conditions: percent protection, pH 11.0, 44° C., 16 hours, n = 2
Protocol: The ddPCR assays measure RNA integrity by converting intact RNA to cDNA by reverse transcription, then performing digital PCR in thousands of nanoliter-sized droplets for each sample. PCR is performed within each droplet, which allows for more sensitive detection of subtle changes in RNA concentration compared to traditional PCR or qPCR. Additionally, primers/probes specific to the 5′ end of the RNA/cDNA transcript(s) are used to assess fragment integrity—e.g. degraded RNA will have fewer 5′ positive droplets. The BioRad QX200 Droplet Digital PCR System was used for the ddPCR workflow.
Basic assay procedure: RNA samples (Chi18 or FgenL fragments) were diluted to 25 fg/μL or 10 fg/μL, respectively, in 50 mM […] buffer pH 11.0. Amino acid stocks were made up in 50 mM CAPS buffer, pH 11.0 and subsequently re-adjusted to pH 11.0, post solubilization. Amino acid stocks were tested in a dose-response format to determine EC50. An amino acid dilution plate containing a ˜300 mM (or appropriate) top-concentration of amino acid in 50 mM CAPS buffer was serially (half-log) diluted for 10 times. 0.6 μL of this compound dilution plate was spotted into a 96-well PCR plate (Thermo). Sample RNAs were added (6 μL) and incubated with test amino acid as described below.
Degradation reaction: Treated RNAs were incubated for 16 hours at 30° C. for Chi18 samples or 44° C. for FgenL samples. Upon completion of the degradation reaction, cDNA was made from the intact RNA by Reverse Transcription and ddPCR run for each sample (96 well plates). Positive 5′ droplet values were divided by the total accepted droplet values for each sample and a ratio value generated for each sample.
EC50 was determined by using a four parameter logistic equation: Y=A+((B−A)/(1+(C/X)D)); where Y is percent protection, X is compound concentration, A and B are minimum and maximum asymptotes, respectively, C is EC50, and D is Hill slope.

Compound	% Control N = 1 (FgenL model RNA [1]) [%]	% Control N = 2 (FgenL model RNA [1]) [%]	% Control Average (FgenL model RNA [1]) [%]	Conc. FgenL#1 (FgenL model RNA [1])	Conc. FgenL#2 (FgenL model RNA [1])	% Control N = 1 (Chi18 model RNA) [%]	% Control N = 2 (Chi18 model RNA) [%]	% Control Avg. (Chi18 model RNA) [%]	Conc. chi18#1 (Chi18 model RNA)	Conc. chi18#2 (Chi18 model RNA)	T10 Avg, peak area as percentage of T=0 (Chi18 mRNA construct) [%]	T10 R1 peak area at 250 nm (Chi18 mRNA construct)	T24 Avg, peak area as percentage of T=0 (Chi18 mRNA construct) [%]	T24 R1 peak area at 250 nm (Chi18 mRNA construct)	T0 Avg, peak area as percentage of T=0 (Chi18 mRNA construct) [%]	EC50 (FgenL model RNA [2]) [mM]	T0 R1 peak area at 250 nm (Chi18 mRNA construct)	T2 Avg, peak area as percentage of T=0 (Chi18 mRNA construct) [%]	T2 R1 peak area at 250 nm (Chi18 mRNA construct)	also measured
N[C@@H](CS)C(=O)O [Cysteine]	4.9	5.9	5.4	1.7	2.05	4.5	3.5	4.0	2.39	1.85	0.0	0	0.0	0	100.0	> 30	–	–	–	T0 R1 peak area at 250 nm (Chi18 mRNA construct; listed as Cys): 39458 and 20358; T2 R1 peak area at 250 nm (Chi18 mRNA construct; listed as Cys): 25387 and 14715; T2 Avg, peak area as percentage of T=0 (Chi18 mRNA construct; listed as Cys): 60.4% and 61.4%
CC[C@H](C)[C@H](N)C(=O)O [Isoleucine]	12.2	9.5	10.8	4.22	3.28	19.3	24.2	21.8	10.3	12.8	33.8	4699	0.0	0	100.0	> 30	15361	63.2	7533	–
NC(=O)C[C@H](N)C(=O)O [Asparagine]	21.9	15.0	18.4	7.56	5.19	21.0	26.7	23.8	11.2	14.1	0.0	0	0.0	0	100.0	–	25494	62.7	12115	–
C[C@H](N)C(=O)O [Alanine]	28.8	23.2	–	9.93	8.05	35.3	51.4	43.3	18.8	27.2	18.1	2730	0.0	0	100.0	> 30	19606	71.6	13211	–
CC(C)[C@H](N)C(=O)O [Valine]	25.4	18.4	21.9	8.77	6.38	32.5	32.5	32.5	17.3	–	0.0	0	0.0	0	100.0	> 30	29804	56.7	12369	–
N[C@@H](CC(=O)O)C(=O)O [Aspartic acid]	107.0	91.1	99.0	36.9	31.6	52.5	53.5	53.0	28	28.3	0.0	0	0.0	0	100.0	–	11079	69.4	7643	–
